{
  "source": "paper PMC10610214",
  "about": "(Pharmaceuticals, 2023)",
  "key": {"AChE": {"target": "T1, AChE (Electrophorus electricus, UniProt O42275)", "T1 construct": "AChE (from electric eel); purchased Sigma Chemical Company (St. Louis, MO, USA)", "T1 sequence (O42275 24-633)": "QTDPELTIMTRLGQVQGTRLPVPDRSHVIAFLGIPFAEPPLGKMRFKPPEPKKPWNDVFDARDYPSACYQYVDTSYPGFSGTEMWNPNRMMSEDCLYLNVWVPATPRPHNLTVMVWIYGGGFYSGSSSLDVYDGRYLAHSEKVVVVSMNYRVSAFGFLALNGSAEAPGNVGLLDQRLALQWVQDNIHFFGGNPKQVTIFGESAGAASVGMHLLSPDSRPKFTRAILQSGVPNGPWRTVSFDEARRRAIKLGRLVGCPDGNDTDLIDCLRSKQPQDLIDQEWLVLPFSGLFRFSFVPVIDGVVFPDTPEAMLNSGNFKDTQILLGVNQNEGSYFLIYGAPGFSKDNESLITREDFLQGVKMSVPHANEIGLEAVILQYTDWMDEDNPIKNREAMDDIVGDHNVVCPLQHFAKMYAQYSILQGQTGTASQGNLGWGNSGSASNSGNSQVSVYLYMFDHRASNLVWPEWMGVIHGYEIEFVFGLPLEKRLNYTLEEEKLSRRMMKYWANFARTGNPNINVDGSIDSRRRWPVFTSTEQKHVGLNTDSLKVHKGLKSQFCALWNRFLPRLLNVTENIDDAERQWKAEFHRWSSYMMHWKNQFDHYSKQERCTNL", "type": "biochemical", "conditions": "for AChE activity after dilution (reversibility): control 100", "protocol": "The activities of the diluted residual enzymes were measured by Ellman’s modified method.\nReversibility studies were performed using a modified Ellman’s dilution method to measure the activity of the diluted residual enzyme. The AChE/BuChE (0.5 U/mL), ATCI/BTCI (0.01 M) and DTNB (0.01 M) were diluted with phosphate buffer pH = 7.4. […] At the end of incubation, 20 μL of DTNB solution was added to them. […] All the measured results are expressed as the mean ± SEM of the three independent experiments."}, "PC12 cells": {"test_system": "PC12 cells", "assay": "Cytotoxicity in PC12 cells (MTT)", "type": "cell-based", "protocol": "(§1) The cytotoxicity and neuroprotective effects of the compounds on PC12 cells were evaluated by MTT assay. PC12 cells were seeded into a 96-well plate at a density of 5.0 × 10^3 cells per well. After the cells were incubated overnight, the old medium was discarded. The cells were incubated for another 24 h with fresh medium containing compounds at a concentration of 30 or 50 μM. A total of 20 μL of MTT solution (5 mg/mL, Sigma-Aldrich, Shanghai, China) was then added per well, and the cells were incubated for an additional 4 h. Afterwards, the supernatant was removed and 150 μL of DMSO was added to solubilize formazan crystals. The 96-well plate was placed on the shaker for 10–15 min, and then the absorbance at 492 nm was measured by a microplate reader."}, "TNF-α in BV2 cells": {"test_system": "TNF-α in BV2 cells", "assay": "TNF-α secretion in LPS-stimulated BV2 cells (ELISA)", "type": "cell-based", "conditions": "Mus musculus, BV-2, 24 h, read-out: TNF-α inhibition IC50", "protocol": "The cytotoxicity of compounds on BV2 cells were evaluated by MTT assay and similar to those described in Section 2.5. The NO concentrations in medium were determined using Griess Reagent assay (Beyotime) in accordance with a previously reported method. Nitrite is reduced to nitrogen oxide using Griess Reagent I. Nitrogen oxide then reacts with Griess Reagent II forming a stable product that can be detected by its absorbance at […]. The two-step assay is simple, fast, and can detect nitrite levels as low as 1 nmol/well. BV2 cells were seeded into a 48-well plate at a density of 6.0 × 10^4 cells per well. After the cells were incubated overnight, the old medium was discarded. Then, the cells were pretreated with various concentrations (10, 5, 1, 0.5, and 0.1 μM) of compounds for 1 h and then co-incubated with LPS (1 μg/mL, 30 μL/well) for 24 h. After 24 h, the cell supernatant (50 μL/well) was placed into a new 96-well plate for experiment. […] The absorbance at […] was measured by a microplate reader.\nThe contents of TNF-α and IL-β in the cell supernatant were measured via ELISA (Jyimei, Wuhan, China) following the manufacturer’s instructions."}, "in vitro": {"assay": "in vitro", "type": "in vitro ADME, SD rats", "conditions": "pH 7.4", "protocol": "The incubation was terminated at different time points by adding 0.5 mL of ice-cold CH3CN. A parallel incubation was performed in the absence of a NADPH-regenerating system with microsomes as the negative control, and the reactions were terminated after the corresponding time incubation. After centrifugation with 12,500 rpm at 4 °C for 10 min, the supernatant was directly analyzed by the HPLC UV systems (Agilent HPLC 1200 instrument). Three independent experiments were performed in triplicate."}, "[1]": {"test_system": "scopolamine-induced AD mice", "assay": "Morris water maze, scopolamine-induced AD mouse model", "type": "in vivo", "protocol": "Mice were reared in a temperature and humidity controlled environment with free access to food and water, with self-adaptive rearing for 4 days.\nAccording to behavioral experiments, 30 mice were randomly divided into 5 groups. […] On day 7, scopolamine hydrobromide was injected intraperitoneally into the of the mouse to establish an AD model. The control group were only injected normal saline. After 30 min, the bodyweight changes in mice during the administration period were recorded.\nThe MWM is a white circular pool (150 cm in diameter, 60 cm in height; no features on the inner surface) with a water height of 46 cm and a white platform (10 cm in diameter) submerged 1 cm below the water surface. White titanium dioxide (0.25 g/L) was added to make the water turbid to make the platform invisible, and the platform was fixed in the third quadrant of the circular pool (four quadrants in total). Training was performed by allowing mice to stay for 15 s after reaching the platform. If the mice successfully found the platform within 60 s, they were allowed to stay on the platform for 15 s; otherwise, they were brought to the platform and stayed for 15 s. The training was performed four times a day for a total of 4 days of training. Except for the control group, animals were intraperitoneally injected with scopolamine 90 min before the test to induce cognitive deficits mimicking. On day 5, a probe trial was conducted with the platform removed. Mice were placed in the quadrant opposite the target for 60 s, and their swim path was recorded to evaluate memory retention. Performance measures included latency to reach the platform location and time spent in each quadrant."}, "BV2 cells": {"test_system": "BV2 cells", "assay": "Cytotoxicity in BV2 cells (MTT)", "type": "cell-based", "protocol": "as §1\nThe cytotoxicity of compounds on BV2 cells were evaluated by MTT assay and similar to those described in Section 2.5. The NO concentrations in medium were determined using Griess Reagent assay (Beyotime) in accordance with a previously reported method. Nitrite is reduced to nitrogen oxide using Griess Reagent I. Nitrogen oxide then reacts with Griess Reagent II forming a stable product that can be detected by its absorbance at […]. The two-step assay is simple, fast, and can detect nitrite levels as low as 1 nmol/well. BV2 cells were seeded into a 48-well plate at a density of 6.0 × 10^4 cells per well. […]"}, "SY5Y cells": {"test_system": "SY5Y cells", "assay": "Cytotoxicity in SY5Y cells (MTT)", "type": "cell-based"}, "Aβ1-42": {"target": "Aβ1-42 (Homo sapiens, UniProt P05067)", "sequence (P05067 672-713 limits assumed)": "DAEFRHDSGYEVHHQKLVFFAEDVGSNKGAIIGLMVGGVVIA", "assay": "TEM of Aβ1-42 self-aggregation", "conditions": "4h 100 μM, Aβ1-42 5 μM, 48 h", "description": "Transmission Electron Microscope (TEM) studies were performed as previously described. […] After 2 days, a copper mesh was used to adsorb the samples, then stained with phosphotungstic acid, and the Aβ1-42 self-aggregation by TEM was observed (Talos L1200C, Thermo Fisher Scientific, Waltham, MA, USA)."}, "[2]": {"conditions": "Morris water maze probe trial, day 5"}},
  "note": "“And” between values parts separate entries of the source, which are not always exact repeats. Equal entries are not always repeated. Where two headings read alike, the source gives them in different places.",
  "data": [
    {"compound": "O=C1c2cc(NS(=O)(=O)c3ccccc3F)ccc2-n2c1nc1ccccc1c2=O", "note": "[4h]", "values": [
      {"measurement": "Reversibility of AChE inhibition", "setting": "AChE; dilution method", "value": "reversible inhibitor"},
      {"measurement": "AChE activity after dilution (reversibility)", "setting": "AChE; final inhibitor 0.1 × IC50 after 100-fold dilution", "value": "87.2 ± 0.92"},
      {"measurement": "AChE activity after dilution (reversibility)", "setting": "AChE; final inhibitor 1 × IC50 after 100-fold dilution", "value": "72.3 ± 1.03"},
      {"measurement": "Cell Viability (% of Control)", "setting": "PC12 cells; compound 30 μM, 30 µM", "value": "99.62 ± 0.94 % of Control and 99.6 ± 0.9 % of Control"},
      {"measurement": "Cell Viability (% of Control)", "setting": "PC12 cells; compound 50 μM, 50 µM", "value": "99.21 ± 1.57 % of Control and 99.2 ± 1.5 % of Control"},
      {"measurement": "IC50", "setting": "TNF-α in BV2 cells", "value": "1310 ± 280", "unit": "nM"},
      {"measurement": "K", "setting": "in vitro; SD, rat, 100 μM", "value": "0.00574 ± 0.00037", "unit": "min⁻¹"},
      {"measurement": "half-life at 100 μM", "setting": "in vitro; SD rat liver microsomes", "value": "1.8 ± 0.0817", "unit": "h"},
      {"measurement": "Bodyweight of mice", "setting": "[1]; 10 and 30 mg/kg, gavage, 7 days", "value": "did not cause any abnormal fluctuations in the bodyweight of mice"},
      {"measurement": "Dwell time in the target quadrant", "setting": "[1]; [2]", "value": "markedly higher in the 30 mg/kg dose group than those in the model and 10 mg/kg dose groups"},
      {"measurement": "Number of virtual platform crossings", "setting": "[1]; [2]", "value": "markedly higher in the 30 mg/kg dose group than those in the model and 10 mg/kg dose groups"},
      {"measurement": "Escape latency", "setting": "[1]; Morris water maze, 10 and 30 mg/kg gavage, training days", "value": "decreased in a dose-dependent manner"},
      {"measurement": "Cell Viability (% of Control)", "setting": "BV2 cells; 30 μM", "value": "101.23 ± 1.82 % of control"},
      {"measurement": "Cell Viability (% of Control)", "setting": "BV2 cells; 50 μM", "value": "97.44 ± 1.36 % of control"},
      {"measurement": "Cell Viability (% of Control)", "setting": "SY5Y cells; 30 μM", "value": "97.84 ± 1.24 % of control"},
      {"measurement": "Cell Viability (% of Control)", "setting": "SY5Y cells; 50 μM", "value": "91.33 ± 1.48 % of control"},
      {"measurement": "Morphology of Aβ1-42 aggregates (TEM)", "setting": "Aβ1-42", "value": "aggregation of Aβ1-42 samples was remarkably reduced"}
    ]}
  ]
}
